According to PubChem BioAssay (NCI):
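Following 48 hours of exposure in 96-well plates, responses at five concentrations were used to interpolate endpoints linearly. At the GI50, growth is halved. TGI is the concentration that stops growth completely.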

How the values were obtained:
Experiment in all cases: NCI-60 cell line screen, 48 h
SNB-19 CNS = test system: SNB-19 CNS
IGROV1 ovarian = test system: IGROV1 ovarian
UACC-62 melanoma = test system: UACC-62 melanoma
HT29 colon = test system: HT29 colon
SF-268 CNS = test system: SF-268 CNS
SF-295 CNS = test system: SF-295 CNS
OVCAR-5 ovarian = test system: OVCAR-5 ovarian
U251 CNS = test system: U251 CNS
HCT-116 colon = test system: HCT-116 colon
MDA-MB-435 = test system: MDA-MB-435
LOX IMVI melanoma = test system: LOX IMVI melanoma
T-47D breast = test system: T-47D breast
MOLT-4 leukemia = test system: MOLT-4 leukemia
ACHN renal = test system: ACHN renal
OVCAR-3 ovarian = test system: OVCAR-3 ovarian
CCRF-CEM leukemia = test system: CCRF-CEM leukemia
SF-539 CNS = test system: SF-539 CNS
HCT-15 colon = test system: HCT-15 colon
TK-10 renal = test system: TK-10 renal
NCI-H522 lung = test system: NCI-H522 lung
SW-620 colon = test system: SW-620 colon
HL-60(TB) leukemia = test system: HL-60(TB) leukemia
COLO 205 colon = test system: COLO 205 colon
A498 renal = test system: A498 renal
OVCAR-8 ovarian = test system: OVCAR-8 ovarian
PC-3 prostate = test system: PC-3 prostate
HS 578T breast = test system: HS 578T breast
NCI-H226 lung = test system: NCI-H226 lung
DU-145 prostate = test system: DU-145 prostate
RXF 393 renal = test system: RXF 393 renal

Work on `CC1(C)CC[C@]2(C(=O)O)CC[C@]3(C)C(=CCC4[C@@]5(C)C[C@@H](O)[C@@H]6OC(c7ccc(F)cc7)OC[C@@]6(C)C5CC[C@]43C)C2C1` (some centres undefined) yielded a TGI (SNB-19 CNS) greater than 100 µM, a GI50 (IGROV1 ovarian) of 7.62 µM and a TGI (IGROV1 ovarian) of 24.9 µM. For the same compound, the GI50 (UACC-62 melanoma) was 11.4 µM, the TGI (UACC-62 melanoma) was 24.3 µM and the GI50 (HT29 colon) was 5.09 µM. For the same compound, the TGI (HT29 colon) was 30.3 µM, the GI50 (SF-268 CNS) was 5.3 µM and the TGI (SF-268 CNS) was greater than 100 µM. It also gave a GI50 (SF-295 CNS) of 3.57 µM, a TGI (SF-295 CNS) of 15.9 µM and a GI50 (OVCAR-5 ovarian) of 13.3 µM. The TGI (OVCAR-5 ovarian) was 33.5 µM, the GI50 (U251 CNS) was 3.54 µM and the TGI (U251 CNS) was 17 µM. The GI50 (HCT-116 colon) was 3.5 µM, the TGI (HCT-116 colon) was 13.7 µM and the GI50 (MDA-MB-435) was 10.8 µM. It also gave a TGI (MDA-MB-435) of 23.7 µM, a GI50 (LOX IMVI melanoma) of 4.13 µM and a TGI (LOX IMVI melanoma) of 16.2 µM. It also gave a GI50 (T-47D breast) of 11.8 µM, a TGI (T-47D breast) of 95.9 µM and a GI50 (MOLT-4 leukemia) of 2.64 µM. The TGI (MOLT-4 leukemia) was 12 µM, the GI50 (ACHN renal) was 3.56 µM and the TGI (ACHN renal) was 32.5 µM. It also gave a GI50 (OVCAR-3 ovarian) of 4.13 µM, a TGI (OVCAR-3 ovarian) of 18.8 µM and a GI50 (CCRF-CEM leukemia) of 3.58 µM. The TGI (CCRF-CEM leukemia) was 25.8 µM, the GI50 (SF-539 CNS) was 6.71 µM and the TGI (SF-539 CNS) was 21.3 µM. It also gave a GI50 (HCT-15 colon) of 2.42 µM, a TGI (HCT-15 colon) of 11.6 µM and a GI50 (TK-10 renal) of 10.1 µM. It also gave a TGI (TK-10 renal) greater than 100 µM, a GI50 (NCI-H522 lung) of 5.21 µM and a TGI (NCI-H522 lung) of 23.8 µM. The GI50 (SW-620 colon) was 6.54 µM, the TGI (SW-620 colon) was 30.3 µM and the GI50 (HL-60(TB) leukemia) was 2.29 µM. It also gave a TGI (HL-60(TB) leukemia) of 6.41 µM, a GI50 (COLO 205 colon) of 4.53 µM and a TGI (COLO 205 colon) of 17.9 µM. The GI50 (A498 renal) was 5.41 µM, the TGI (A498 renal) was 20.1 µM and the GI50 (OVCAR-8 ovarian) was 6.96 µM. For the same compound, the TGI (OVCAR-8 ovarian) was 40.2 µM, the GI50 (PC-3 prostate) was 4.18 µM and the TGI (PC-3 prostate) was greater than 100 µM. For the same compound, the GI50 (HS 578T breast) was 5.56 µM, the TGI (HS 578T breast) was 48.5 µM and the GI50 (NCI-H226 lung) was 3.96 µM. It also gave a TGI (NCI-H226 lung) of 23.5 µM, a GI50 (DU-145 prostate) of 5.23 µM and a TGI (DU-145 prostate) greater than 100 µM. For the same compound, the GI50 (RXF 393 renal) was 6.66 µM and the TGI (RXF 393 renal) was 20.5 µM.
